≈ marks a conversion by molar mass, not a printed value. Positions of bridges follow the written chain, without caps; N, C: chain ends. Non-standard residues stand in square brackets, D forms with d. Residues, ends and D or L forms follow the SMILES beside them. *: point of attachment. S(3-Cl-benzyl) = Clc1cccc(CS*)c1; X3 = c1ccc(Oc2ccc(CS*)cc2)cc1; X5 = c1ccc(-c2ccc(CS*)cc2)cc1; Dab = NCC[C@H](N)C(=O)O; X1 = CC(C)CCCCS*
Assays:
[1] = tested on: A. baumannii (ATCC 19606); format: cell-based; settings: ATCC 19606
Procedure: (§1) Minimum inhibitory concentrations (MICs) on relevant Gram-negative bacteria were determined by broth microdilution, in accordance with CLSI guidelines. Indicated bacteria were taken from glycerol stocks and incubated overnight on blood agar at 37 °C. Well-isolated colonies were taken, suspended in TSB (5 mL), and grown to an OD600 of 0.5. Compounds to be tested were dissolved in DMSO (6.4 mg/mL), diluted in cation-adjusted Mueller–Hinton Broth (CAMHB) (12.5 and 20 μg/mL Mg^2+ and Ca^2+, respectively), and diluted serially on polypropylene microtiter plates. To the diluted compounds (50 μL per well) was added 50 μL of relevant bacterial suspension, to yield a final concentration of 10^6 CFU/mL. Plates were covered by adhesive gas-permeable membranes and incubated at 37 °C. MIC was read out as the lowest concentration that inhibited visual bacterial growth. Shown values are consistent results from at least duplicate experiments.

E. coli (ATCC 25922) = format: cell-based; settings: ATCC 25922
Procedure: as §1

[2] = tested on: K. pneumoniae (ATCC 13883); format: cell-based; settings: ATCC 13883
Procedure: as §1

[3] = tested on: P. aeruginosa (ATCC 27853); format: cell-based; settings: ATCC 27853
Procedure: as §1

[4] = tested on: differentiated conditionally immortalized PTECs (ciPTECs, OAT-1); experiment: ciPTEC toxicity assay (PrestoBlue); format: cell-based, human
Procedure: ciPTECs (OAT-1) cells,[52],[53] grown to 90–100% confluence, were washed by Hanks’ balanced salt solution (HBSS; Gibco, Life Technologies, Paisley, U.K.) and detached by accutase (4 mL) for 5 min at 37 °C. The cells were then suspended in fresh medium (DMEM/F-12, supplemented with 10% fetal calf serum, insulin (5 μg/mL), transferrin (5 μg/mL), selenium (5 μg/mL) hydrocortisone (35 ng/mL), Epidermal Growth Factor (10 ng/mL) and tri-iodothyronine (40 pg/mL)). Cell density was adjusted to 2.0 × 10^5 cells/mL, of which 100 μL was added to each well of a 96-well plate. The cells were incubated for 24 h at 33 °C, followed by 6 days at 37 °C, in a humidified atmosphere containing 5% (v/v) CO2. The medium was refreshed every second or third day.
Compounds were dissolved and serially diluted in serum-free medium. Differentiated cells were washed once with HBSS and serially diluted compounds (80 μL/well) were transferred to the ciPTEC-containing plate. Compounds were incubated for 24 h at 37 °C; the cells were washed by HBSS, followed by incubation with 10% PrestoBlue cell viability reagent (Thermo Scientific, Vienna, Austria) in HBSS at 37 °C in the dark. Fluorescence was recorded (excitation: 530 nm, emission: 590 nm). Raw data are corrected for PrestoBlue background fluorescence and reported relative to the no-treatment control (cells with medium only). Viability data were fitted with GraphPad Prism software (version 5.03; GraphPad Software, La Jolla, CA), by nonlinear regression with 0 as bottom constraint. Presented data are based on triplicates.
Toxicity assessment on PTECs
Table S1. TC50 values for polymyxin analogues. Toxicity assessment on proximal tubular epithelial cells
performed using PrestoBlue™ assay. TC50 values are derived after non-linear regression analysis on cell viability
correspond to data obtained from 2 different batches of cells/analyses on different days. As the value for
polymyxin B differs 2-fold, values in the manuscript are presented relative to the polymyxin B value.
Compound TC50 (µ M) Compound TC50 (µ M)
Polymyxin B 80 Polymyxin B 41
Figure S3. Representative traces of ciPTECs’ viability after incubation with analogues for 24 hours. Shown data are based on […]

Row | SMILES | MIC A. baumannii (ATCC 19606) [1] [µg/mL] | MIC E. coli (ATCC 25922) (E. coli (ATCC 25922)) [µg/mL] | MIC K. pneumoniae (ATCC 13883) [2] [µg/mL] | MIC P. aeruginosa (ATCC 27853) [3] [µg/mL] | TC50, Day 2 [4] [µM] | ciPTEC Toxicity Index (relative to polymyxin B) [4]
1 | CC(C)CCCCSSC[C@@H](NC(=O)CN)C(=O)N[C@H](C(=O)N[C@@H](CCN)C(=O)N[C@H]1CCNC(=O)[C@H]([C@@H](C)O)NC(=O)[C@H](CCN)NC(=O)[C@H](CCN)NC(=O)[C@H](CC(C)C)NC(=O)[C@@H](Cc2ccccc2)NC(=O)[C@H](CCN)NC1=O)[C@@H](C)O [Compound 24b] (H-G[dC](X1)T[Dab][Dab][Dab][dF]L[Dab][Dab]T; lactam 5-C) | 1 (≈ 0.798 µM) | 2 (≈ 1.6 µM) | 1 (≈ 0.798 µM) | 2 (≈ 1.6 µM) | 63 | –
2 | CC(C)C[C@@H]1NC(=O)[C@@H](Cc2ccccc2)NC(=O)[C@H](CCN)NC(=O)[C@@H](NC(=O)[C@H](CCN)NC(=O)[C@@H](NC(=O)[C@H](N)CSSCc2ccc(-c3ccccc3)cc2)[C@@H](C)O)CCNC(=O)[C@H]([C@@H](C)O)NC(=O)[C@H](CCN)NC(=O)[C@H](CCN)NC1=O [Compound 36] (H-[dC](X5)T[Dab][Dab][Dab][dF]L[Dab][Dab]T; lactam 4-C) | 1 (≈ 0.791 µM) | 4 (≈ 3.16 µM) | 1 (≈ 0.791 µM) | 2 (≈ 1.58 µM) | 68 | 1.7
3 | CC(C)C[C@@H]1NC(=O)[C@@H](Cc2ccccc2)NC(=O)[C@H](CCN)NC(=O)[C@@H](NC(=O)[C@H](CCN)NC(=O)[C@@H](NC(=O)[C@H](N)CSSCc2ccc(Oc3ccccc3)cc2)[C@@H](C)O)CCNC(=O)[C@H]([C@@H](C)O)NC(=O)[C@H](CCN)NC(=O)[C@H](CCN)NC1=O [Compound 37] (H-[dC](X3)T[Dab][Dab][Dab][dF]L[Dab][Dab]T; lactam 4-C) | 1 (≈ 0.781 µM) | 4 (≈ 3.12 µM) | 1 (≈ 0.781 µM) | 4 (≈ 3.12 µM) | 72 | 1.8
4 | CC(C)C[C@@H]1NC(=O)[C@@H](Cc2ccccc2)NC(=O)[C@H](CCN)NC(=O)[C@@H](NC(=O)[C@H](CCN)NC(=O)[C@@H](NC(=O)[C@H](N)CSSCc2cccc(Cl)c2)[C@@H](C)O)CCNC(=O)[C@H]([C@@H](C)O)NC(=O)[C@H](CCN)NC(=O)[C@H](CCN)NC1=O [Compound 38] (H-[dC](S(3-Cl-benzyl))T[Dab][Dab][Dab][dF]L[Dab][Dab]T; lactam 4-C) | 1 (≈ 0.818 µM) | 1 (≈ 0.818 µM) | 0.5 (≈ 0.409 µM) | 4 (≈ 3.27 µM) | 74 | –

— paper PMC9743094, “Synthesis and Evaluation of Polymyxins Bearing Reductively Labile Disulfide-Linked Lipids” (Journal of Medicinal Chemistry, 2022)
